Reference: US20260021064A1, “ACETAMINOPHEN AND NAPROXEN FOR TREATING PAIN” (Kenvue Brands LLC, priority 2022, published 2026)
Where two headings read alike, the source gives them in different places.

Assays:
[1] = system: pain after surgical extraction of four third molars; settings: for PID Score, Least Squares Mean (Standard Error): PI-NRS 0-10, difference from baseline
Method: (§1) 1. Time-Weighted Sum of Pain Intensity Difference Score From Baseline (0 Hour) to 6 Hours (SPID 0-6) [Time Frame: Baseline (0 hour) up to 6 hours post-dose]. Time-weighted sum of the pain intensity difference (SPID) score was measured using a Pain Intensity-Numerical Rating Scale (PI-NRS) ranging from 0-10 (0=no pain, 10=very severe pain). The possible range of SPID for 0-6 hours was from −60 to 60. A higher value of SPID indicated greater pain relief. PID was the difference between baseline pain intensity and pain intensity at assessment. Time-weighted sum of the pain intensity difference scores were derived by first multiplying each PID score by the time from the previous time point and adding these time-weighted PID scores together over the intervals from 0 to 6 hours.
2. Time-weighted Sum of Pain Intensity Difference Score From Baseline (0 Hour) to 12 Hours (SPID 0-12) [Time Frame: Baseline (0 hour) up to 12 hours post-dose]. Time-weighted sum of the pain intensity difference score was measured using a PI-NRS ranging from 0-10 (0=no pain, 10=very severe pain). The possible range of SPID for 0-12 hours was from-120 to 120. A higher value of SPID indicated greater pain relief. PID was the difference between baseline pain intensity and pain intensity at assessment (12 hours). Time-weighted sum of the pain intensity difference scores were derived by first multiplying each PID score by the time from the previous time point and adding these time-weighted PID scores together over the intervals from 0 to 12 hours.
4. Time-Weighted Sum of Pain Intensity Difference Score From Baseline (0 Hour) to 8 Hours (SPID 0-8) [Time Frame: Baseline (0 hour) up to 8 hours post-dose]. Time-weighted sum of the pain intensity difference score was measured using a PI-NRS ranging from 0-10 (0=no pain, 10=very severe pain). The possible range of SPID for 0-8 hours was from −80 to 80. A higher value of SPID indicated greater pain relief. PID was the difference between baseline pain intensity and pain intensity at assessment (8 hours). Time-weighted sum of the pain intensity difference scores were derived by first multiplying each PID score by the time from the previous time point and adding these time-weighted PID scores together over the intervals from 0 to 8 hours.
6. Pain Intensity Difference (PID) Scores at Individual Time Points [Time Frame: 0.25 hours, 0.5 hours, 0.75 hours, 1 hours, 1.25 hours, 1.5 hours, 2 hours, 3 hours, 4 hours, 5 hours, 6 hours, 7 hours, 8 hours, 9 hours, 10 hours, 11 hours, and 12 hours]. Pain Intensity was self-reported over 12 hours, using a pain rating of 0-10 on the PI-NRS, with score ranged from 0-10 (0=no pain; 10 =worst imaginable pain). Pain intensity differences were calculated with respect to baseline at each time point after study drug administration.
as §1, with “Time-Weighted” for “1. Time-Weighted”, “0-6):” for “0-6) [Time Frame: Baseline (0 hour) up to 6 hours post-dose].”
Time-weighted Sum of Pain Intensity Difference Score From Baseline (0 Hour) to 12 Hours (SPID 0-12): Time-weighted sum of the pain intensity difference score was measured using a PI-NRS ranging from 0-10 (0=no pain, 10=very severe pain). The possible range of SPID for 0-12 hours was from-120 to 120. A higher value of SPID indicated greater pain relief. PID was the difference between baseline pain intensity and pain intensity at assessment (12 hours).

[2] = system: pain after surgical extraction of four third molars; settings: for PAR Score, Least Squares Mean (Standard Error): PR-NRS 0-10
Method: 1. Time-Weighted Sum of Total Pain Relief Score From Baseline (0 Hour) to 6 Hours (TOTPAR 0-6) [Time Frame: Baseline (0 hour) up to 6 hours post-dose]. Time-weighted total pain relief (TOTPAR) was measured using a Pain Relief Numerical Rating Scale (PR-NRS) ranging from 0-10 (0=no relief, 10=complete relief). Total pain relief scores (TOTPARs) were calculated by multiplying the pain relief score at each postdose time point by the duration (in hours) since the preceding time point and then summing these values. The minimum value was 0, and the maximum value was 60. Higher scores was indicative of more pain relief.
2. Time-Weighted Sum of Total Pain Relief Score From Baseline (0 Hour) to 8 Hours (TOTPAR 0-8) [Time Frame: Baseline (0 hour) up to 8 hours post-dose]. TOTPAR was measured using a PR-NRS ranging from 0-10 (0=no relief, 10=complete relief). Total pain relief scores (TOTPARs) were calculated by multiplying the pain relief score at each postdose time point by the duration (in hours) since the preceding time point and then summing these values. The minimum value was 0, and the maximum value was 80. Higher scores was indicative of more pain relief.
3. Time-Weighted Sum of Total Pain Relief Score From Baseline (0 Hour) to 12 Hours (TOTPAR 0-12) [Time Frame: Baseline (0 hour) up to 12 hours post-dose]. TOTPAR was measured using a PR-NRS ranging from 0-10 (0=no relief, 10=complete relief). Total pain relief scores (TOTPARs) were calculated by multiplying the pain relief score at each postdose time point by the duration (in hours) since the preceding time point and then summing these values. The minimum value was 0, and the maximum value was 120. Higher scores was indicative of more pain relief.
5. Pain Relief (PAR) Scores at Individual Timepoints [Time Frame: 0.25 hours, 0.5 hours, 0.75 hours, 1 hours, 1.25 hours, 1.5 hours, 2 hours, 3 hours, 4 hours, 5 hours, 6 hours, 7 hours, 8 hours, 9 hours, 10 hours, 11 hours, and 12 hours]. Participants answered a question at individual time points: “how much relief do you have from your starting pain?” on a 11-point PR-NRS. Scale ranged from 0=no relief to 10=complete relief. Higher score indicated improvement in pain.
Time-Weighted Sum of Total Pain Relief Score From Baseline (0 Hour) to 6 Hours (TOTPAR 0-6): Time-weighted total pain relief (TOTPAR) was measured using a Pain Relief Numerical Rating Scale (PR-NRS) ranging from 0-10 (0=no relief, 10=complete relief). Total pain relief scores (TOTPARs) were calculated by multiplying the pain relief score at each postdose time point by the duration (in hours) since the preceding time point and then summing these values. The minimum value was 0, and the maximum value was 60. Higher scores was indicative of more pain relief.
Time-Weighted Sum of Total Pain Relief Score From baseline (0 Hour) to 8 Hours (TOTPAR 0-8): TOTPAR was measured using a PR-NRS ranging from 0-10 (0=no relief, 10=complete relief). Total pain relief scores (TOTPARs) were calculated by multiplying the pain relief score at each postdose time point by the duration (in hours) since the preceding time point and then summing these values. The minimum value was 0, and the maximum value was 80. Higher scores was indicative of more pain relief.
Time-Weighted Sum of Total Pain Relief Score From Baseline (0 Hour to 12 Hours (TOTPAR 0-12): TOTPAR was measured using a PR-NRS ranging from 0-10 (0=no relief, 10=complete relief). Total pain relief scores (TOTPARs) were calculated by multiplying the pain relief score at each postdose time point by the duration (in hours) since the preceding time point and then summing these values. The minimum value was 0, and the maximum value was 120. Higher scores was indicative of more pain relief.
Pain Relief (PAR) Scores at Timepoints: Participants answered a question at individual time points: “how much relief do you have from your starting pain?” on a 11-point PR-NRS. Scale ranged from 0-no relief to 10-complete relief.

[3] = system: pain after surgical extraction of four third molars; settings: single oral dose; up to 12 hours; scale poor (0) to excellent (4)
Method: Participant's Global Evaluation of Study Medication OR Overall Impression of Study Medication According to Participant's Global Evaluation [Time Frame: Up to 12 hours]. Participants were asked to rate their overall impression of the study medication using the following scale: poor (0), fair (1), good (2), very good (3), and excellent (4) where higher score represented better outcome.
Participant's Global Evaluation of Study Medication OR Overall Impression of Study Medication According to Participant's Global Evaluation: Participants were asked to rate their overall impression of the study medication using the following scale: poor (0), fair (1), good (2), very good (3), and excellent (4) where higher score represented better outcome

SMILES: COc1ccc2cc([C@H](C)C(=O)O)ccc2c1 [Arm 2: Naproxen Sodium 440 mg, naproxen sodium]
- PID Score, Least Squares Mean (Standard Error) ([1]; 0.25 Hours post-dose): 0.58 (0.15)
- PID Score, Least Squares Mean (Standard Error) ([1]; 0.5 Hours post-dose): 1.82 (0.24)
- PID Score, Least Squares Mean (Standard Error) ([1]; 0.75 Hours post-dose): 3.15 (0.27)
- PID Score, Least Squares Mean (Standard Error) ([1]; 1 Hours post-dose): 3.97 (0.28)
- PID Score, Least Squares Mean (Standard Error) ([1]; 1.25 Hours post-dose): 4.50 (0.28)
- PID Score, Least Squares Mean (Standard Error) ([1]; 1.5 Hours post-dose): 4.72 (0.28)
- PID Score, Least Squares Mean (Standard Error) ([1]; 2 Hours post-dose): 4.87 (0.28)
- PID Score, Least Squares Mean (Standard Error) ([1]; 3 Hours post-dose): 4.75 (0.30)
- PID Score, Least Squares Mean (Standard Error) ([1]; 4 Hours post-dose): 4.63 (0.31)
- PID Score, Least Squares Mean (Standard Error) ([1]; 5 Hours post-dose): 4.59 (0.32)
- PID Score, Least Squares Mean (Standard Error) ([1]; 6 Hours post-dose): 4.50 (0.32)
- PID Score, Least Squares Mean (Standard Error) ([1]; 7 Hours post-dose): 4.36 (0.32)
- PID Score, Least Squares Mean (Standard Error) ([1]; 9 Hours post-dose): 4.04 (0.33)
- PID Score, Least Squares Mean (Standard Error) ([1]; 10 Hours post-dose): 4.01 (0.35)
- PID Score, Least Squares Mean (Standard Error) ([1]; 11 Hours post-dose): 3.99 (0.35)
- PID Score, Least Squares Mean (Standard Error) ([1]; 12 Hours post-dose): 3.91 (0.36)
- Time-Weighted Sum of Pain Intensity Difference Score From Baseline (0 Hour) to 6 Hours (SPID 0-6), Least Squares Mean (Standard Error) ([1]; single oral dose, possible range -60 to 60, higher = greater pain relief): 25.59 (1.562)
- Time-Weighted Sum of Pain Intensity Difference Score From Baseline (0 Hour) to 8 Hours (SPID 0-8), Least Squares Mean (Standard Error) ([1]; single oral dose, possible range -80 to 80, higher = greater pain relief): 34.11
- Time-weighted Sum of Pain Intensity Difference Score From Baseline (0 Hour) to 12 Hours (SPID 0-12), Least Squares Mean (Standard Error) ([1]; single oral dose, possible range -120 to 120, higher = greater pain relief): 50.07 (3.341)
- PAR Score, Least Squares Mean (Standard Error) ([2]; 0.25 Hours post-dose): 0.80 (0.18)
- PAR Score, Least Squares Mean (Standard Error) ([2]; 0.5 Hours post-dose): 2.27 (0.31)
- PAR Score, Least Squares Mean (Standard Error) ([2]; 0.75 Hours post-dose): 4.11 (0.35)
- PAR Score, Least Squares Mean (Standard Error) ([2]; 1 Hours post-dose): 5.29 (0.35)
- PAR Score, Least Squares Mean (Standard Error) ([2]; 1.25 Hours post-dose): 5.99 (0.35)
- PAR Score, Least Squares Mean (Standard Error) ([2]; 1.5 Hours post-dose): 6.36 (0.34)
- PAR Score, Least Squares Mean (Standard Error) ([2]; 2 Hours post-dose): 6.62 (0.34)
- PAR Score, Least Squares Mean (Standard Error) ([2]; 3 Hours post-dose): 6.52 (0.35)
- PAR Score, Least Squares Mean (Standard Error) ([2]; 4 Hours post-dose): 1.46 (0.36)
- PAR Score, Least Squares Mean (Standard Error) ([2]; 5 Hours post-dose): 6.45 (0.37)
- PAR Score, Least Squares Mean (Standard Error) ([2]; 6 Hours post-dose): 6.26 (0.38)
- PAR Score, Least Squares Mean (Standard Error) ([2]; 8 Hours post-dose): 5.95 (0.39)
- PAR Score, Least Squares Mean (Standard Error) ([2]; 9 Hours post-dose): 5.73 (0.40)
- PAR Score, Least Squares Mean (Standard Error) ([2]; 10 Hours post-dose): 5.71 (0.42)
- PAR Score, Least Squares Mean (Standard Error) ([2]; 11 Hours post-dose): 5.71 (0.43)
- PAR Score, Least Squares Mean (Standard Error) ([2]; 12 Hours post-dose): 5.62 (0.44)
- Time-Weighted Sum of Total Pain Relief Score From Baseline (0 Hour) to 6 Hours (TOTPAR 0-6), Least Squares Mean (Standard Error) ([2]; single oral dose, range 0 to 60, higher = more pain relief): 35.20 (1.848)
- Time-Weighted Sum of Total Pain Relief Score From baseline (0 Hour) to 8 Hours (TOTPAR 0-8), Least Squares Mean (Standard Error) ([2]; single oral dose, range 0 to 80, higher = more pain relief): 47.19
- Time-Weighted Sum of Total Pain Relief Score From Baseline (0 Hour to 12 Hours (TOTPAR 0-12), Least Squares Mean (Standard Error)) ([2]; single oral dose, range 0 to 120, higher = more pain relief): 69.96
- Participant's Global Evaluation of Study Medication, Least Squares Mean (Standard Error) [3]: 2.7 (0.13)
